Test results as given in patent publication US6794377B2, “Ortho, ortho-substituted nitrogen-containing bisaryl compounds, processes for their preparation, their use as medicaments, and pharmaceutical preparation comprising them” (Aventis Pharma Deutschland GmbH, priority 2000, dated 2004).
Where two headings read alike, the source gives them in different places.

Target: T1, Kv1.5 channels from humans (Homo sapiens, UniProt P22460)
T1 construct: expressed in transfected cells; host or cells: Xenopus laevis oocytes injected with in vitro synthesized RNA
T1 sequence (P22460 whole entry): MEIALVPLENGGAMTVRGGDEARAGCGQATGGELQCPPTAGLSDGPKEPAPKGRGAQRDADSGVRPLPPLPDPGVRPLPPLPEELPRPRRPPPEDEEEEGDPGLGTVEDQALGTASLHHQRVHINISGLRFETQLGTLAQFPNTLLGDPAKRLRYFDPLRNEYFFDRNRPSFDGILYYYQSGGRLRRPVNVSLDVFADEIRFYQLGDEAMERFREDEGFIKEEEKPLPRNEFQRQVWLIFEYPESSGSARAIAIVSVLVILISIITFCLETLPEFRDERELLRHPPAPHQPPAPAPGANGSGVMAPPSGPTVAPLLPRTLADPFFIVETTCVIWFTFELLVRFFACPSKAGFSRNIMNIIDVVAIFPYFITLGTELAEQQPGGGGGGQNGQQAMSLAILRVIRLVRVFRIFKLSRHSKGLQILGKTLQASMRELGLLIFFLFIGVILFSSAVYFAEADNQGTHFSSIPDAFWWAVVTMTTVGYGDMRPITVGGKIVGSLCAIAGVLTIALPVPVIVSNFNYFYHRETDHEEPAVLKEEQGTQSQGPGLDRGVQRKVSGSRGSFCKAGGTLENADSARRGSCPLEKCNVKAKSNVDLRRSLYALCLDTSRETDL
Assay: Kv1.5 currents in Xenopus oocytes, 2-microelectrode voltage clamp
Type: cell-based
Conditions: human Kv1.5 expressed in Xenopus laevis oocytes, voltage jumps to 0 mV and 40 mV lasting 500 ms, room temperature, Hill equation
Method: Kv1.5 channels from humans were expressed in Xenopus oocytes. To this end, oocytes from Xenopus laevis were first isolated and defolliculated. RNA coding for Kv1.5 synthesized in vitro was then injected into these oocytes. After a Kv1.5 protein expression for 1-7 days, Kv1.5 currents were measured on the oocytes using the 2-microelectrode voltage clamp technique. The Kv1.5 channels were in this case as a rule activated using voltage jumps to 0 mV and 40 mV lasting 500 ms. The bath was rinsed using a solution of the following composition: NaCl 96 mM, KCl 2 mM, CaCl2 1.8 mM, MgCl2 1 mM, HEPES 5 mM (titrated with NaOH to pH 7.4). These experiments were carried out at room temperature. The following were employed for data acquisition and analysis: Gene clamp amplifier (Axon Instruments, Foster City, USA) and MacLab D/A converter and software (ADinstruments, Castle Hill, Australia). The substances according to the invention were tested by adding them to the bath solution in different concentrations. The effects of the substances were calculated as the percentage inhibition of the Kv1.5 control current which was obtained when no substance was added to the solution. The data were then extrapolated using the Hill equation in order to determine the inhibition concentrations IC50 for the respective substances.

| SMILES | IC50 (read-out: IC50) | IC50 |
| --- | --- | --- |
| CC(C)CCNC(=O)c1nccnc1-c1ccccc1CNC(=O)OC(C)(C)C [Example 7] | < 100 µM | – |
| CC(C)(C)OC(=O)NCc1ccccc1-c1nccnc1C(=O)NCc1ccc(F)cc1F [Example 8] | < 100 µM | – |
| CC(C)CCNC(=O)c1ccccc1-c1ccncc1CNC(=O)OC(C)(C)C [Example 9] | < 100 µM | – |
| CC(C)C[C@H](NC(=O)c1nccnc1-c1ccccc1CNC(=O)OC(C)(C)C)C(N)=O [Example 11] | – | inactive |
| COc1ccc(NC(=O)c2nccnc2-c2ccccc2CNC(=O)OC(C)(C)C)cc1 [Example 12] | < 100 µM | – |
| CC(C)CCNC(=O)c1ccncc1-c1ccccc1CNC(=O)OCc1ccccc1 [Example 26] | < 100 µM | – |
| CC(C)C[C@H](NC(=O)c1nccnc1-c1ccccc1CNC(=O)O[C@@H](C)c1ccccc1)C(N)=O [Example 31] | < 100 µM | – |
| COc1ccc(CC(=O)NCc2ccccc2-c2cccnc2C(=O)NCCc2ccccn2)cc1 [Example 36] | < 100 µM | – |
| CCOc1ccc(C(=O)NCc2ccccc2-c2cccnc2C(=O)NCCc2ccccn2)cc1 [Example 37] | < 100 µM | – |
| COc1ccc(CC(=O)NCc2ccccc2-c2cccnc2C(=O)N[C@@H](CC(C)C)C(N)=O)cc1 [Example 39] | < 100 µM | – |
| CCOc1ccc(C(=O)NCc2ccccc2-c2cccnc2C(=O)N[C@@H](CC(C)C)C(N)=O)cc1 [Example 40] | < 100 µM | – |
| COc1ccc(CCC(=O)NCc2ccccc2-c2cccnc2C(=O)N[C@@H](CC(C)C)C(N)=O)cc1 [Example 41] | < 100 µM | – |
| COc1ccc(CC(=O)NCc2ccccc2-c2cccnc2C(=O)Nc2ccc(OC)cc2)cc1 [Example 42] | < 100 µM | – |
| CCOc1ccc(C(=O)NCc2ccccc2-c2cccnc2C(=O)Nc2ccc(OC)cc2)cc1 [Example 43] | < 100 µM | – |
| COc1ccc(CC(=O)NCc2ccccc2-c2ncccc2C(=O)NCc2ccc(F)cc2F)cc1 [Example 51] | < 100 µM | – |
| COc1ccc(CC(=O)NCc2ccccc2-c2nccnc2C(=O)NCCc2ccccn2)cc1 [Example 53] | – | inactive |
| CC(CC(=O)NCc1cnccc1-c1ccccc1C(=O)NCC1CC1)c1ccc(F)cc1 (centres unmarked) [Example 54] | < 100 µM | – |
| C[C@@H](O)CNC(=O)c1ncccc1-c1ccccc1CNC(=O)C(C)(C)c1ccc(Cl)cc1 [Example 65] | < 100 µM | – |
| C[C@@H](O)CNC(=O)c1ncccc1-c1ccccc1CNC(=O)CCc1cccc(OC(F)(F)F)c1 [Example 66] | < 100 µM | – |
| C[C@H](CC(=O)NCc1ccccc1-c1cccnc1C(=O)NC[C@@H](C)O)c1ccccc1 [Example 67] | < 100 µM | – |

Next, values leading:

| IC50 (read-out: IC50) | IC50 | SMILES |
| --- | --- | --- |
| < 100 µM | – | CC(C)CCNC(=O)c1ccncc1-c1ccccc1CNC(=O)OC(C)(C)C [Example 3] |
| < 100 µM | – | CC(C)(C)OC(=O)NCc1ccccc1-c1cnccc1C(=O)NCc1ccc(F)cc1F [Example 4] |
| < 100 µM | – | CC(C)CCNC(=O)c1cccnc1-c1ccccc1CNC(=O)OC(C)(C)C [Example 5] |
| < 100 µM | – | CC(C)(C)OC(=O)NCc1ccccc1-c1ncccc1C(=O)NCc1ccc(F)cc1F [Example 6] |
| 2.6 µM | – | CC(C)CCNC(=O)c1ncccc1-c1ccccc1CNC(=O)OCc1ccccc1 [Example 18, Benzyl {2-[2-(3-methylbutylcarbamoyl)pyridin-3-yl]benzyl}carbamate] |
| 0.6 µM | – | C[C@H](OC(=O)NCc1ccccc1-c1cccnc1C(=O)NCCc1ccccn1)c1ccccc1 [Example 19] |
| 1.2 µM | – | CC(C)C[C@H](NC(=O)c1ncccc1-c1ccccc1CNC(=O)O[C@@H](C)c1ccccc1)C(N)=O [Example 20] |
| 2 µM | – | COc1ccc(NC(=O)c2ncccc2-c2ccccc2CNC(=O)O[C@@H](C)c2ccccc2)cc1 [Example 21] |
| 0.4 µM | – | C[C@H](OC(=O)NCc1ccccc1-c1cccnc1C(=O)NCC1CC1)c1ccccc1 [Example 23] |
| 9 µM | – | CC(C)CCNC(=O)c1cccnc1-c1ccccc1CNC(=O)OCc1ccccc1 [Example 28] |
| 7.6 µM | – | O=C(NCc1ccccc1-c1ncccc1C(=O)NCc1ccc(F)cc1F)OCc1ccccc1 [Example 29] |
| 1.7 µM | – | C[C@H](OC(=O)NCc1cnccc1-c1ccccc1C(=O)NCC1CC1)c1ccccc1 [Example 33] |
| 4.7 µM | – | C[C@H](OC(=O)NCc1cnccc1-c1ccccc1C(=O)NCCc1cccnc1)c1ccccc1 [Example 34] |
| 0.4 µM | – | C[C@H](CC(=O)NCc1ccccc1-c1cccnc1C(=O)NCC1CC1)c1ccccc1 [Example 35, 3-{2-(R)-[(3-Phenylbutyrylamino)methyl]phenyl}pyridine-2-carboxylate cyclopropylmethylamide] |
| 5.6 µM | – | COc1ccc(CCC(=O)NCc2ccccc2-c2cccnc2C(=O)NCCc2ccccn2)cc1 [Example 38] |
| 6.7 µM | – | COc1ccc(CCC(=O)NCc2ccccc2-c2cccnc2C(=O)Nc2ccc(OC)cc2)cc1 [Example 44] |
| 0.5 µM | – | CC(CC(=O)NCc1ccccc1-c1cccnc1C(=O)NCCc1ccccn1)c1ccc(F)cc1 (centres unmarked) [Example 45] |
| 2.7 µM | – | C[C@H](CC(=O)NCc1ccccc1-c1cccnc1C(=O)NCc1cccnc1)c1ccccc1 [Example 46] |
| 3.1 µM | – | CC(CC(=O)NCc1ccccc1-c1cccnc1C(=O)NCC1CC1)c1ccc(F)cc1 (centres unmarked) [Example 47] |
| 2.4 µM | – | Cc1onc(-c2ccccc2)c1C(=O)NCc1ccccc1-c1cccnc1C(=O)NCC1CC1 [Example 48] |
| 0.9 µM | – | C[C@H](CC(=O)NCc1ccccc1-c1cccnc1C(=O)NCCc1ccccn1)c1ccccc1 [Example 49] |
| 3.8 µM | – | O=C(Cc1ccc(OC(F)(F)F)cc1)NCc1cnccc1-c1ccccc1C(=O)NCC1CC1 [Example 55] |
| 6.1 µM | – | O=C(Cc1ccc(OC(F)(F)F)cc1)NCc1cnccc1-c1ccccc1C(=O)NCCc1cccnc1 [Example 56] |
| 0.7 µM | – | C[C@H](OC(=O)NCc1ccccc1-c1cccnc1C(=O)NCCc1cccnc1)c1ccccc1 [Example 58] |
| 3.2 µM | – | CC(CC(=O)NCc1ccccc1-c1cccnc1C(=O)NCCc1cccnc1)c1ccc(F)cc1 (centres unmarked) [Example 59] |
| 3.1 µM | – | O=C(CCc1cccc(OC(F)(F)F)c1)NCc1ccccc1-c1cccnc1C(=O)NCCc1cccnc1 [Example 60] |
| 1.7 µM | – | CC(C)(C(=O)NCc1ccccc1-c1cccnc1C(=O)NCC1CC1)c1ccc(Cl)cc1 [Example 61] |
| 1.8 µM | – | O=C(CCc1cccc(OC(F)(F)F)c1)NCc1ccccc1-c1cccnc1C(=O)NCC1CC1 [Example 62] |
| 1.8 µM | – | O=C(CCc1cccc(OC(F)(F)F)c1)NCc1ccccc1-c1cccnc1C(=O)NCCc1ccccn1 [Example 63] |
| 0.9 µM | – | CC(C)(C(=O)NCc1ccccc1-c1cccnc1C(=O)NCCc1ccccn1)c1ccc(Cl)cc1 [Example 64] |
